Source: patent US11046697B2, “Compounds and compositions useful for treating disorders related to NTRK” (BLUEPRINT MEDICINES CORPORATION, priority 2015, dated 2021)
Read-outs that look alike come from different tables or passages of the source.

How the values were obtained:
[1] = system: KM12 Cliff (G595R) cell line; assay: NTRK G595R mutant cellular assay (CellTiter-Glo growth inhibition); type: cell-based; settings: 72 hr, CellTiter-Glo
Method: (§1) NTRK Wild Type and G595R Mutant Cellular Assays Protocol
(§2) KM12 wild type colon carcinoma cell line harboring the TPM3-NTRK1 fusion protein was obtained from the National Cancer Institute (NCI). This line has been previously shown to be dependent upon the NTRK activity derived from the NTRK fusion protein for growth and survival. […] Cells were first plated in 384-well plates at 1000 cells/well in complete media (10% FBS and 1% pen/strep) and incubated overnight at 37° C. Cells were then dosed with test articles at varying concentrations using the Bravo liquid handling system. […] Each compound was run in duplicate per plate. […] 72 hr after dosing, assay plates were developed using CellTiter-Glo (Promega) and resultant luminescence was read on the Envision plate reader. IC50 determinations were calculated using a 4-parameter curve fitting algorithm

wild type NTRK1 enzyme = target: T1, wild type NTRK1 enzyme (Homo sapiens, UniProt P04629); assay: NTRK1 Wild Type Assay at 1 mM ATP; type: biochemical; settings: 1 mM ATP; read-out: Enz NTRK1 IC50
T1 construct: purchased BPS Bioscience 40280
T1 sequence (P04629 440-796 limits assumed): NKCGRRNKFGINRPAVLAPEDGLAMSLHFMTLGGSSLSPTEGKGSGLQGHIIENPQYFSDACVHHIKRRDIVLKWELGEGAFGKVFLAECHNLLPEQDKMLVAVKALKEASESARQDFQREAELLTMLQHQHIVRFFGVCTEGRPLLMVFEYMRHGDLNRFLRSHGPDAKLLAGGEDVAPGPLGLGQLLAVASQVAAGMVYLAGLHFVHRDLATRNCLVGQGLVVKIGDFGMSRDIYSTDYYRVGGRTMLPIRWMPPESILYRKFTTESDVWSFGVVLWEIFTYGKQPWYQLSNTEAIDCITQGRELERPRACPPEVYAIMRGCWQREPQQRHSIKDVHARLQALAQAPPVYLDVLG
Method: NTRK1 Wild Type Assay at 1 mM ATP
The reaction was stopped by the addition of 70 μL of Stop buffer (100 mM HEPES pH 7.5, 0.015% Brij 35, 35 mM EDTA and 0.2% of Coating Reagent 3 (Caliper Lifesciences)). The plate was then read on a Caliper EZReader 2 (protocol settings: −1.7 psi, upstream voltage −500, downstream voltage −3000, post sample sip 35s).

[2] = system: KM12 wild type colon carcinoma cell line harboring the TPM3-NTRK1 fusion protein; assay: NTRK wild type cellular assay (CellTiter-Glo growth inhibition); type: cell-based; settings: 72 hr, CellTiter-Glo, read-out: KM12 (WT) IC50
Method: as §1, §2

IC50 (wild type NTRK1 enzyme) [nM] | IC50 [2] [nM] | IC50 ([2]; Homo sapiens, KM12, 72 h) [nM] | Compound | IC50 [1] [nM] | IC50 ([1]; Homo sapiens, KM12, 72 h) [nM]
< 10 | < 10 | – | O=C(c1n[nH]c2ncnc(N[C@@H]3C=C[C@@H](O)[C@H]3O)c12)N1C[C@@H](F)C[C@@H]1c1cc(F)ccc1F [Compound 170] | < 10 | –
< 10 | < 10 | – | O=C(c1n[nH]c2ncnc(NC3CCCC(O)C3O)c12)N1CC(F)CC1c1cc(F)ccc1OC(F)(F)F (stereo not drawn) [Compound 243] | < 10 | –
< 10 | – | < 10 | CN(Cc1cc(Cl)ccc1F)C(=O)c1n[nH]c2ncnc(N[C@@H]3CC[C@@H](O)[C@H]3O)c12 [Compound 148] | – | < 10
10 to 100 | 10 to 100 | – | CN(Cc1cccc(C#N)c1F)C(=O)c1n[nH]c2ncnc(N[C@@H]3CC[C@@H](O)[C@H]3O)c12 [Compound 142] | 100 to 1000 | –
< 10 | – | < 10 | O=C(c1n[nH]c2ncnc(N[C@@H]3COC[C@@H](O)[C@H]3O)c12)N1C[C@@H](F)C[C@@H]1c1cc(F)ccc1OC(F)(F)F [Compound 244] | – | < 10
10 to 100 | 10 to 100 | – | O=C(c1n[nH]c2ncnc(NC3COCC(O)C3O)c12)N1CC(F)CC1c1cccc(F)c1 (stereo not drawn) [Compound 169] | 10 to 100 | –
10 to 100 | 10 to 100 | – | O=C(NCc1cc(F)ccc1F)c1n[nH]c2ncnc(NC3CC(O)CC3O)c12 (stereo not drawn) [Compound 13] | 100 to 1000 | –
< 10 | < 10 | – | O=C(c1n[nH]c2ncnc(N[C@H]3[C@H](O)[C@H](O)[C@@H]4C[C@@H]43)c12)N1C[C@@H](F)C[C@@H]1c1cc(F)cc(F)c1F [Compound 220] | < 10 | –
< 10 | 10 to 100 | – | O=C(c1n[nH]c2ncnc(N[C@@H]3C=C[C@@H](O)[C@H]3O)c12)N1C[C@@H](F)C[C@@H]1c1cc(F)cc(Cl)c1 [Compound 192] | 10 to 100 | –
> 1000 | – | > 1000 | O=C(NCc1cc(F)ccc1F)c1n[nH]c2ncnc(N[C@@H]3[C@H]4C[C@H]4C[C@H]3O)c12 [Compound 3] | – | > 1000
10 to 100 | – | 100 to 1000 | O=C(c1n[nH]c2ncnc(N[C@@H]3CC[C@@H](O)[C@H]3O)c12)N1CC(F)(F)C[C@@H]1c1cc(F)cc(F)c1 [Compound 108] | – | 100 to 1000
10 to 100 | 10 to 100 | – | O=C(c1n[nH]c2ncnc(N[C@@H]3CC[C@@H](O)[C@H]3O)c12)N1C[C@@H](F)C[C@@H]1c1ccccc1 [Compound 144] | 100 to 1000 | –
100 to 1000 | – | 100 to 1000 | O=C(NCc1cc(F)ccc1F)c1n[nH]c2ncnc(N[C@@H]3CCOC[C@H]3O)c12 [Compound 11] | – | 100 to 1000
100 to 1000 | > 1000 | – | O=C(NCc1cc(F)ccc1F)c1n[nH]c2ncnc(NC3CC(F)(F)CC3O)c12 (stereo not drawn) [Compound 42] | > 1000 | –
10 to 100 | – | 10 to 100 | O=C(NCc1cc(F)ccc1F)c1n[nH]c2ncnc(N[C@@H]3CCC[C@H]3O)c12 [Compound 1] | – | 10 to 100
100 to 1000 | – | 100 to 1000 | O=C(NC(CO)c1cc(F)ccc1F)c1n[nH]c2ncnc(NC3CC(F)CC3O)c12 (stereo not drawn) [Compound 61] | – | > 1000
< 10 | – | < 10 | COc1c(F)cc(F)cc1[C@H]1C[C@H](F)CN1C(=O)c1n[nH]c2ncnc(N[C@@H]3COC[C@@H](O)[C@H]3O)c12 [Compound 236] | – | 10 to 100
< 10 | – | 10 to 100 | O=C(c1n[nH]c2ncnc(N[C@@H]3COC[C@@H](O)[C@H]3O)c12)N1C[C@@H](F)C[C@@H]1c1cc(F)ccc1Cl [Compound 222] | – | 10 to 100
< 10 | 100 to 1000 | – | N#C[C@H]1C[C@@H](O)[C@H](Nc2ncnc3[nH]nc(C(=O)N4C[C@@H](F)C[C@@H]4c4cncc(F)c4)c23)C1 [Compound 166] | 100 to 1000 | –
< 10 | 10 to 100 | – | O=C(c1n[nH]c2ncnc(NC3CCCC(O)C3O)c12)N1CC(F)CC1c1cccc(F)c1F (stereo not drawn) [Compound 193] | 10 to 100 | –
10 to 100 | – | 10 to 100 | O=C(NCc1cc(F)ccc1F)c1n[nH]c2ncnc(N[C@@H]3COCC[C@H]3O)c12 [Compound 8] | – | 100 to 1000
10 to 100 | – | 10 to 100 | CN(Cc1cc(F)cnc1Cl)C(=O)c1n[nH]c2ncnc(N[C@@H]3CC[C@@H](O)[C@H]3O)c12 [Compound 60] | – | 10 to 100
100 to 1000 | – | 100 to 1000 | COc1ccc(F)cc1CNC(=O)c1n[nH]c2ncnc(N[C@@H]3CC[C@@H](O)[C@H]3O)c12 [Compound 117] | – | > 1000

IC50 (wild type NTRK1 enzyme) [nM] | IC50 [2] [nM] | IC50 ([2]; Homo sapiens, KM12, 72 h) [nM] | Compound | IC50 [1] [nM] | IC50 ([1]; Homo sapiens, KM12, 72 h) [nM]
10 to 100 | 10 to 100 | – | CCN(Cc1cc(F)ccc1F)C(=O)c1n[nH]c2ncnc(NC3CCCC3O)c12 (stereo not drawn) [Compound 26] | 100 to 1000 | –
10 to 100 | – | 10 to 100 | CN(Cc1cc(F)cc(F)c1F)C(=O)c1n[nH]c2ncnc(N[C@@H]3COC[C@@H](O)[C@H]3O)c12 [Compound 164] | – | 10 to 100
10 to 100 | 10 to 100 | – | O=C(c1n[nH]c2ncnc(N[C@@H]3C=C[C@@H](O)[C@H]3O)c12)N1C[C@@H](F)C[C@@H]1c1cc(F)cc(F)c1 [Compound 171] | 10 to 100 | –
10 to 100 | – | 10 to 100 | O=C(NCc1cc(F)ccc1F)c1n[nH]c2ncnc(N[C@H]3[C@H](O)[C@H](O)[C@@H]4C[C@@H]43)c12 [Compound 25] | – | 100 to 1000
100 to 1000 | 100 to 1000 | – | CN(Cc1ccccc1)C(=O)c1n[nH]c2ncnc(N[C@@H]3CC[C@@H](O)[C@H]3O)c12 [Compound 131] | 100 to 1000 | –
< 10 | – | 10 to 100 | CN(Cc1cc(Cl)ccc1F)C(=O)c1n[nH]c2ncnc(N[C@@H]3COC[C@@H](O)[C@H]3O)c12 [Compound 163] | – | 10 to 100
10 to 100 | 10 to 100 | – | O=C(c1n[nH]c2ncnc(N[C@@H]3CCC[C@@H](O)[C@H]3O)c12)N1C[C@@H](F)C[C@@H]1c1ccccc1 [Compound 155] | 10 to 100 | –
< 10 | – | < 10 | O=C(c1n[nH]c2ncnc(NC3CC(F)CC3O)c12)N1CC(F)CC1c1cc(F)cc(F)c1F (stereo not drawn) [Compound 208] | – | < 10
< 10 | – | < 10 | O=C(c1n[nH]c2ncnc(N[C@H]3[C@H](O)[C@H](O)[C@@H]4C[C@@H]43)c12)N1C[C@@H](F)C[C@@H]1c1cc(F)ccc1Cl [Compound 213] | – | < 10
10 to 100 | 10 to 100 | – | CC(NC(=O)c1n[nH]c2ncnc(NC3CCC(O)C3O)c12)c1cc(F)ccc1F (stereo not drawn) [Compound 34] | 100 to 1000 | –
100 to 1000 | 100 to 1000 | – | O=C(NCc1cc(F)ccc1F)c1n[nH]c2ncnc(NC3CC(F)CC3O)c12 (stereo not drawn) [Compound 15] | > 1000 | –
> 1000 | – | > 1000 | O=C(N[C@@H](c1cc(F)ccc1F)C(F)(F)F)c1n[nH]c2ncnc(N[C@@H]3COCC[C@H]3O)c12 [Compound 103] | – | > 1000
10 to 100 | – | 10 to 100 | N#C[C@H]1C[C@H](c2cc(F)ccc2F)N(C(=O)c2n[nH]c3ncnc(N[C@@H]4COCC[C@H]4O)c23)C1 [Compound 100] | – | 100 to 1000
< 10 | – | 10 to 100 | CN(Cc1cc(F)cn(C)c1=O)C(=O)c1n[nH]c2ncnc(N[C@@H]3CCC[C@H]3O)c12 [Compound 136] | – | 10 to 100
< 10 | – | 10 to 100 | O=C(c1n[nH]c2ncnc(N[C@@H]3CC[C@@H](O)[C@H]3O)c12)N1C[C@@H](F)C[C@@H]1c1cc(F)ccc1OC(F)F [Compound 237] | – | 10 to 100
< 10 | < 10 | – | O=C(c1n[nH]c2ncnc(N[C@H]3[C@H](O)[C@H](O)[C@@H]4C[C@@H]43)c12)N1C[C@@H](F)C[C@@H]1c1cccc(F)c1F [Compound 189] | 10 to 100 | –
< 10 | < 10 | – | O=C(c1n[nH]c2ncnc(NC3CCCC(O)C3O)c12)N1CC(F)CC1c1cccc(F)c1 (stereo not drawn) [Compound 168] | < 10 | –
< 10 | < 10 | – | O=C(c1n[nH]c2ncnc(NC3CCOCC3O)c12)N1CC(F)CC1c1cc(F)cc(F)c1 (stereo not drawn) [Compound 174] | < 10 | –
< 10 | 10 to 100 | – | N#Cc1cc(F)cc(C2CC(F)CN2C(=O)c2n[nH]c3ncnc(NC4CCOCC4O)c23)c1 (stereo not drawn) [Compound 181] | 10 to 100 | –
< 10 | < 10 | – | O=C(c1n[nH]c2ncnc(N[C@@H]3CC[C@@H](O)[C@H]3O)c12)N1C[C@@H](F)C[C@@H]1c1cc(F)cc(F)c1F [Compound 206] | < 10 | –
< 10 | – | 10 to 100 | O=C(c1n[nH]c2ncnc(N[C@@H]3CCOC[C@H]3O)c12)N1C[C@@H](F)C[C@@H]1c1cccc(F)c1 [Compound 158] | – | 10 to 100
< 10 | 10 to 100 | – | O=C(c1n[nH]c2ncnc(NC3CCOCC3O)c12)N1CC(F)CC1c1cccc(F)c1F (stereo not drawn) [Compound 175] | 10 to 100 | –
